From ChEMBL document CHEMBL4699409, “Synthesis, evaluation and molecular modelling of piceatannol analogues as arginase inhibitors” (RSC Med Chem, 2020)

What was measured:
[1] = target: T1, Arginase-1 (Bos taurus, UniProt Q2KJ64); experiment: Inhibition of recombinant bovine liver ARGI using L-arginine as substrate incubated for 60 mins by spectroscopic analysis
T1 sequence (Q2KJ64 whole entry): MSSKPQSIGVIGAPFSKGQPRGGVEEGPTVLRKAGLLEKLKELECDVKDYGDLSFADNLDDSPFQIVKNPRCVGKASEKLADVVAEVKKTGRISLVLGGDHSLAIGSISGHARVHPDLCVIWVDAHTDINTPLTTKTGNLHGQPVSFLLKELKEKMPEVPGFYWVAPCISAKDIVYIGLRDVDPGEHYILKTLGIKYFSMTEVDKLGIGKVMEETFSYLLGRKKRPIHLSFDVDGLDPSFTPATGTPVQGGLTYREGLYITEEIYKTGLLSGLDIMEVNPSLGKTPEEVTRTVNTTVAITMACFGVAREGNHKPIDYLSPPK

[2] = target: T1, Arginase-1; experiment: Mixed type inhibition of recombinant bovine liver ARGI using L-arginine as substrate incubated for 60 mins by Dixon plot analysis
[3] = target: T1, Arginase-1; experiment: Mixed type inhibition of recombinant bovine liver ARGI using L-arginine as substrate incubated for 60 mins by Cornish-Bowden plot analysis
[4] = target: T1, Arginase-1; experiment: Mixed type inhibition of recombinant bovine liver ARGI using L-arginine as substrate incubated for 60 mins by Lineweaver-Burk plot analysis
[5] = target: T2, Arginase-1 (Homo sapiens, UniProt P05089); experiment: Inhibition of recombinant human ARG1 expressed in CHO-K1 cells assessed as reduction in urea level incubated for 24 hrs by colorimetric assay; format: cell-based
T2 sequence (P05089 whole entry): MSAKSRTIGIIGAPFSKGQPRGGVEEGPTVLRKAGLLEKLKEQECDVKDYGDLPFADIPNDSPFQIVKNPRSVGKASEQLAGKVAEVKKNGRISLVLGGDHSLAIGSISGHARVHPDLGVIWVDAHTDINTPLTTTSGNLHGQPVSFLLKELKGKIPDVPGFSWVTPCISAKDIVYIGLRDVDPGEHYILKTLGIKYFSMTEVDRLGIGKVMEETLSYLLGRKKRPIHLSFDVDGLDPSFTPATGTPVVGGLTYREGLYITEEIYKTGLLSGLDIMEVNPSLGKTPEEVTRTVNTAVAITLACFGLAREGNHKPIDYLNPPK

[6] = target: T2, Arginase-1; experiment: Inhibition of recombinant human liver ARGI using L-arginine as substrate incubated for 60 mins by spectroscopic analysis

Structure (SMILES) | IC50 [1] [µM] | also measured
O=C(O)c1cc(NCc2ccc(O)c(O)c2)ccc1O | 187 | –
Oc1cc(O)cc(/C=C/c2ccc(O)c(O)c2)c1 [PICEATANNOL] | 47 | Ki [2]: 136 µM; Ki [3]: 136 µM; Ki [4]: 136 µM; IC50 [5]: 1180 µM; IC50 [6]: 69 µM
Oc1ccc(NCc2ccc(O)c(O)c2)cc1 | 238 | –
Oc1ccc(CNCc2ccc3c(c2)OCO3)cc1O | 226 | –
Oc1cc(O)cc(NCc2ccc(O)c(O)c2)c1 | 141 | –
Oc1ccc(CNCc2ccccc2)cc1O | 145 | –
COc1cccc(NCc2ccc(O)c(O)c2)c1 | 185 | –
Oc1ccc(CNCc2cc(Cl)cc(Cl)c2)cc1O | 277 | –
Oc1ccc(CNc2ccc(O)c(O)c2)cc1O | 76 | Ki [2]: 82 µM; Ki [3]: 82 µM; Ki [4]: 82 µM; IC50 [5]: 794 µM; IC50 [6]: 89 µM
COc1ccc(NCc2ccc(O)c(O)c2)cc1 | 154 | –
N=C(NO)NCC[C@H](N)C(=O)O [NOR-NOHA] | 2.7 | –
Nc1ccc(O)c(O)c1 | 478 | –
Oc1ccc(CNCCN2CCOCC2)cc1O | 467 | –
Oc1ccc(CNCCc2c[nH]cn2)cc1O | 318 | –
Oc1cccc(NCc2ccc(O)c(O)c2)c1 | 83 | –
NCCc1ccc(O)c(O)c1 [DOPAMINE] | 128 | –

Structure (SMILES) | IC50 [1] [µM] | also measured
O=C(O)c1cc(O)cc(NCc2ccc(O)c(O)c2)c1 | 108 | –
CCOC(=O)C(NCc1ccc(O)c(O)c1)C(=O)OCC | 362 | –
N[C@@H](CCCCB(O)O)C(=O)O | – | IC50 [5]: 16.8 µM
COc1cccc(CNCc2ccc(O)c(O)c2)c1 | 300 | –
OCc1ccc(O)c(O)c1 | 106 | –
Oc1ccc(CNCCc2ccccc2)cc1O | 367 | –
COc1ccc(CNCc2ccc(O)c(O)c2)cc1 | 389 | –
NCc1ccc(O)c(O)c1 | 164 | –
Oc1ccc(CNc2ccccc2)cc1O | 164 | –
O=C(O)/C=C/c1ccc(O)c(O)c1 [CAFFEIC ACID] | 131 | –
Oc1ccc(O)c(O)c1 | 360 | –
NCCCNCc1ccc(O)c(O)c1 | 343 | –
Oc1ccccc1O [CATECHOL] | 123 | –
COC(=O)c1ccc(O)c(O)c1 [METHYL PROTOCATECHUATE] | 285 | –
Oc1cccc(Br)c1O | 274 | –
Oc1ccc(CNCc2cccc(Cl)c2)cc1O | 329 | –
